The values below are quoted from earlier work in US20070219220A1, “Pyrazolopyrimidinethione Derivatives, Salts and Solvates Thereof, Preparation Methods and Use Thereof” (priority 2003, published 2007).

The structures appear in SMILES notation. Read-outs that look alike come from different tables or passages of the source.

Series [1] relates to healthy mice. The following applies: within two hours, cited from earlier work.
Series [2] has as its system dog. The following applies: cited from earlier work.
For series [3] the following is noted: prior-art filings, background section; cited from earlier work.

As to `CCCc1nn(CC)c2c(=O)[nH]c(-c3cc(S(=O)(=O)N4C[C@@H](C)N[C@@H](C)C4)ccc3OCC)nc12` [5-[2-ethoxy-5-(cis-3,5-dimethylpiperazine-1-sulfonyl)phenyl]-1-ethyl-3-n-propyl-1,6-dihydro-7H-pyrazolopyrimidin-7-one], in series [1] (oral 15 mg/kg), the “occurrences of back climbing” value is 56.6% and the “times of back climbing on the female mice performed by the male mice” value is given as 43. Besides, in series [1] (oral 30 mg/kg), the “occurrences of back climbing” value was 62.5% and the “times of back climbing on the female mice performed by the male mice” value is 53. Also, the “diastolic pressure and heart rate (in words)” value in series [2] was “dramatically decrease diastolic pressure and increase heart rate”. Moreover, the LD50 entry in series [3] is listed as “greater than 2000 mg/kg”.
